Assay results: US20240408064A1, “RAS INHIBITORS, COMPOSITIONS AND METHODS OF USE THEREOF” (GENETOLEAD INC., priority 2021, published 2024)
Entries after “also recorded” stand apart in the source; their conditions may differ. Read-outs that look alike come from different tables or passages of the source.

Key:
HRas^G12V [1] = target: T1, HRas^G12V (Homo sapiens (Human), UniProt P01112, G12V); assay: Overall binding/activity in the various assays (NMR consensus binding)
Method in brief: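 Fragments (240 µM each, pooled) screened against 50 µM HRas^G12V in 25 mM sodium phosphate pH 7.4, 150 mM NaCl, 5 mM MgCl2, 1 mM TCEP-d16 by 1H-decoupled 1D 19F NMR. Hits confirmed by ligand- and protein-observed 1D 1H, STD and T2-CPMG (aggregation check); consensus binding ranked, with 15N HSQC for sites and Kd.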

[2] = Solubility and free-state aggregation in the NMR screen; type: physicochemical; conditions: NMR buffer
Source text: Fragment screening has been performed using a library containing 461 fragments that has been designed using cheminformatics parameters such as Rule of Three and PAINS analysis. All fragments have been curated by ^1H and ^19F NMR for structure verification, purity, solubility in phosphate buffer and lack of apparent aggregation under these conditions. Fragments were pooled according to chemical compatibility resulting in 31 different pools to increase screening throughput. The library was provided by NMX Research in Solutions Inc.
Because of its power to probe the intrinsically weak interactions (Kd) between targets and low-molecular weight fragments, NMR fragment-based lead discovery (FBLD) is a very useful biophysical method in early stage drug discovery, especially for challenging target proteins; including those with shallow binding pockets. Since FBLD screens are performed using low-molecular weight compounds (fragments) with lower structural complexity, the same chemical space can be covered using a smaller number of drug-like fragments versus use of large libraries of higher-molecular weight lead-like compounds as in high throughput screening (HTS) campaigns. Therefore, FBLD has a much higher hit rate than HTS using only several hundred to several thousand compounds in comparison with approximately 1 million compounds for HTS. Also, the small size of the compounds screened in FBLD means a better chance to fully match the interactions with small or transient pockets within the target protein, where these less tractable pockets cannot be accessed with standard classical HTS methods. […] We expect this methodology to be more advantageous than classical HTS methods for expediting the time from hit to lead (H2L) and allows for rapid access to high quality leads with lower attrition rates in subsequent lead optimization (LO) campaigns toward pre-clinical candidate selection. FBLD screening by NMR involves a “consensus binding” approach where several distinct NMR experiments (DLB, STD, CPMG) are applied along with a free-state aggregation detection method (T2-CPMG) to rank the compounds for their affinity to the receptor (HRAS in this case) whilst simultaneously monitoring the solution behavior and critical quality attributes of each compound. The latter helps to eliminate artifact binders which are highly problematic. We performed a fluorine screen involving 461 compounds that were derived from a highly curated fragment library. Moreover, two-dimensional ^15N HSQC NMR was also used to validate ligand-binding sites on the target protein. In addition, we employed protein-detected biophysical measurements were employed to determine fragment binding affinities to the target protein (Kd) by HSQC NMR. From the results, we picked the most interesting hit were picked, FS-1255 that was identified based on consensus binding evidence from all NMR detection methods, and based the lack of free-state aggregation by T2-CPMG. We chose to prioritize on FS-1255 which was the most promising fragment hit.

HRas^G12V [3] = target: T1, HRas^G12V; assay: 19F DLB (ligand-observed 19F NMR) score; type: binding; set-up: scale not given here
Method in brief: (§1)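 Fragments were pooled at 240 μM each with 50 μM HRas G12V in 25 mM sodium phosphate pH 7.4, 150 mM NaCl, 5 mM MgCl2, 1 mM TCEP-d16, 10% D2O, and screened by 1H-decoupled 1D 19F NMR at 600 MHz (64 scans, 5 s relaxation delay). T2-CPMG data were collected with 1 ms echoes and eight delays from 1 to 800 ms.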

HRas^G12V [4] = target: T1, HRas^G12V; assay: 19F T2-CPMG NMR score; type: binding
Method in brief: as §1

HRas^G12V [5] = target: T1, HRas^G12V; assay: Dissociation constant by NMR (1H/15N Fast-HSQC, 1H 1D protein-observed); type: binding; conditions: HRas^G12V; read-out: NMR Kd
Description: All NMR experiments were collected using 3 mm NMR tubes on a 600 MHz Bruker Avance III spectrometer equipped with a QCI helium cryoprobe and a SampleJet sample changer. The buffer used for NMR experiments was 25 mM sodium phosphate pH 7.4, 150 mM NaCl, 5 mM MgCl2, 1 mM TCEP-d16, 10% D2O. Data were processed using Bruker TopSpin.
^1H/^15N Fast-HSQC experiments (Mori et al., Journal of Magnetic Resonance, Series B, Volume 108, Issue 1, July 1995, Pages 94-98) were recorded at a protein concentration of 50-100 μM.
Dissociation constants were obtained by monitoring changes in chemical shifts as a function of ligand concentration. The changes in chemical shifts (d) were calculated according to the following equation (Williamson, Progress in Nuclear Magnetic Resonance Spectroscopy, Volume 73, August 2013, Pages 1-16): d=√(1/2[δ_H^2+[…]]), Where δ are the changes in chemical shift in ppm for ^1H and ^15N and the correction factor (α) was set at 0.15.
^1H 1D protein-observed experiments were recorded with 15-50 μM protein. The standard Bruker 1D ^1H sequence with excitation sculpting (zgesgp) was employed. A relaxation delay of 1 s was employed in order to use 256 scans while still keeping experimental time fairly short. Changes in protein chemical shift or peak intensity in the methyl region were monitored against compound concentration.

KRAS^G12D-GDP [6] = target: T2, KRAS^G12D-GDP (Homo sapiens (Human), UniProt P01116, G12D); assay: 19F DLB score, KRAS^G12D-GDP; type: binding; set-up: scale not given here
Description: (§2) Since the fragment library was curated using phosphate buffer, 25 mM sodium phosphate pH 7.4, 150 mM NaCl, 5 mM MgCl2, 1 mM TCEP-d16, 10% D2O Fresh TCEP was used for experiments. Screening was performed using ^1H-decoupled 1D ^19F experiment Bruker experiment (zgfhigqn.2) with 64 scans and a relaxation delay of 5 seconds. 50 μM HRas^G12V and 240 μM of each fragment in pools (mixtures) were used.
(§3) Hit confirmation was performed using the same ^19F experiment as the screen. Ligand-observed 1D ^1H, protein-observed 1D ^1H, ^1H T2-CPMG as well as Saturation Transfer Difference (STD) experiments were also run on the same samples. Ligand-observed 1D ^1H was run using the standard Bruker sequence with excitation sculpting (zgesgp) with a relaxation delay of 10 seconds and 16 scans per spectrum. Protein-observed 1D ^1H was performed using the same sequence with a relaxation delay of 1 second and 256 scans in order to increase the signal-to-noise of the protein resonances, while keeping the experimental time relatively short. The ^1H T2-CPMG experiment employed a modified version of the Bruker 1D ^1H zgesgp experiment with the addition of a CPMG pulse train after the first 90° excitation pulse. Total duration for each spin echo was fixed at 1 ms (τ=500 μs), while the number of echoes in the pulse train was varied according to the total time (T). The number of scans for each spectrum was 4 and eight delay times were run on each sample, ranging from 1 ms to 800 ms.
(§4) The activity of compounds of the invention regarding KRAS^G12D-GDP was measured in the same as in Example 80. The results obtained with the compounds in the various assays described above are depicted in Table 23.

KRAS^G12D-GDP [7] = target: T2, KRAS^G12D-GDP; assay: 19F T2-CPMG score, KRAS^G12D-GDP; type: binding
Description: as §2, §3, §4

KRAS^G12D-GDP [8] = target: T2, KRAS^G12D-GDP; assay: Overall activity in the various assays, KRAS^G12D-GDP; type: binding
Description: as §4

wild type HRAS [9] = target: T3, wild type HRAS (Homo sapiens (Human), UniProt P01112); assay: 19F DLB score, wild type HRAS; type: binding
Description: as §2, §3
(§5) The activity of compounds of the invention regarding wild type HRAS was measured in the same as in Example 80. The results obtained with the compounds in the various assays described above are depicted in Table 2.

wild type HRAS [10] = target: T3, wild type HRAS; assay: 19F T2-CPMG score, wild type HRAS; type: binding
Description: as §2, §3, §5

Structure (SMILES) | Binding to HRas^G12V (in words) (HRas^G12V [1]) | Solution behaviour in the NMR screen [2] | 19F DLB Score (HRas^G12V [3]) | 19F T2-CPMG Score (HRas^G12V [4]) | Activity ranking on HRas^G12V (in words) (HRas^G12V [1]) | 19F DLB Score (KRAS^G12D-GDP [6]) | 19F T2-CPMG Score (KRAS^G12D-GDP [7]) | other results
COc1ccc(NC(=O)Cc2c[nH]c3cc(F)ccc23)cc1Cl [Compound 10055] | low or no binding | Not soluble | – | – | – | – | – | –
O=C(Cc1c[nH]c2cc(F)ccc12)N1CCCCC1 [Compound 10053] | – | – | 5.85 | 39.43 | More active | 4.89 | >LOQ | Kd (HRas^G12V [5]): 1.53 mM
N#Cc1ccc(NC(=O)Cc2c[nH]c3cc(F)ccc23)cc1 [Compound 10054] | low or no binding | Not soluble | – | – | – | – | – | –
CC(=O)Nc1cccc(NC(=O)Cc2c[nH]c3cc(F)ccc23)c1 [Compound 10014] | – | – | 3.12 | 38.3 | More active | 2.46 | >LOQ | Kd (HRas^G12V [5]): 2.32 mM
COc1cc(Cl)ccc1NC(=O)Cc1c[nH]c2cc(F)ccc12 [Compound 10051] | low or no binding | Not soluble | – | – | – | – | – | –
O=C(Cc1c[nH]c2cc(F)ccc12)Nc1ccccc1 [Compound 10021, 2-(6-fluoro-1H-indol-3-yl)-N-phenyl acetamide] | – | – | – | 38.83 | – | 2.62 | >LOQ | 19F DLB Score (HRas^G12V [3]; @ 50 uM): 8.73 @ 50 uM
CN(C)S(=O)(=O)NCCc1c[nH]c2cc(F)ccc12 [Compound 10004, reference compound] | – | – | – | 19.49 | – | 2.06 | 9.41 | 19F DLB Score (HRas^G12V [3]; @ 50 uM): 5.34 @ 50 uM; Kd (HRas^G12V [5]): 6.16 to 6.4 mM

The next lines start with results.

Binding to HRas^G12V (in words) (HRas^G12V [1]) | Solution behaviour in the NMR screen [2] | 19F DLB Score (HRas^G12V [3]) | 19F T2-CPMG Score (HRas^G12V [4]) | Activity ranking on HRas^G12V (in words) (HRas^G12V [1]) | 19F DLB Score (KRAS^G12D-GDP [6]) | 19F T2-CPMG Score (KRAS^G12D-GDP [7]) | Structure (SMILES) | other results
low or no binding | Not soluble | – | – | – | – | – | COc1ccc(NC(=O)Cc2c[nH]c3cc(F)ccc23)cc1F [Compound 10056] | –
– | – | 2.94 | 21.34 | More active | 2.22 | 9.14 | CC(C(=O)N1CCC1)c1c[nH]c2cc(F)ccc12 (centres unmarked) [Compound 10066, 1-(azetidin-1-yl)-2-(6-fluoro-1H-indol-3-yl) propan-1-one] | Kd (HRas^G12V [5]): 3.51 to 4 mM
– | – | 0.91 | −0.25 | More active | – | – | CN(C)Cc1[nH]c2cc(F)ccc2c1C(CC(=O)O)c1ccccc1F (centres unmarked) [Compound 11066] | Activity ranking on KRAS^G12D-GDP (in words) (KRAS^G12D-GDP [8]): most active
– | – | 2.23 | 11.18 | – | 2.20 | 14.19 | CCOC(=O)Cc1c[nH]c2cc(F)ccc12 [Compound 11003, ethyl 2-(6-fluoro-1H-indol-3-yl) acetate] | –
low or no binding | Aggregated | – | – | – | – | – | O=C(Cc1c[nH]c2cc(F)ccc12)Nc1cccc(F)c1 [Compound 10072] | –
low or no binding | Not soluble | – | – | – | – | – | COc1ccc(NC(=O)Cc2c[nH]c3cc(F)ccc23)cc1C [Compound 10057] | –
– | – | 4.73 | <LLOQ | More active; also recorded: Most active | – | – | CN(C)CC(=O)Nc1cccc(NC(=O)C(C#N)c2c[nH]c3cc(F)ccc23)c1 (centres unmarked) [Compound 11032] | 19F DLB Score (wild type HRAS [9]): 5.76; 19F T2-CPMG Score (wild type HRAS [10]): <LLOQ
low or no binding | Not soluble | – | – | – | – | – | COC(=O)c1cc(NC(=O)Cc2c[nH]c3cc(F)ccc23)cc(OC)c1 [Compound 10060] | –
low or no binding | Not soluble | – | – | – | – | – | Cc1ccc(Cl)cc1NC(=O)Cc1c[nH]c2cc(F)ccc12 [Compound 10061] | –
